In general, Kd refers to the concentration at which binding is half-saturated.

The target in this assay is T1, Myosin-IIIb (Homo sapiens, UniProt Q8WXR4).
T1 sequence (Q8WXR4 whole entry): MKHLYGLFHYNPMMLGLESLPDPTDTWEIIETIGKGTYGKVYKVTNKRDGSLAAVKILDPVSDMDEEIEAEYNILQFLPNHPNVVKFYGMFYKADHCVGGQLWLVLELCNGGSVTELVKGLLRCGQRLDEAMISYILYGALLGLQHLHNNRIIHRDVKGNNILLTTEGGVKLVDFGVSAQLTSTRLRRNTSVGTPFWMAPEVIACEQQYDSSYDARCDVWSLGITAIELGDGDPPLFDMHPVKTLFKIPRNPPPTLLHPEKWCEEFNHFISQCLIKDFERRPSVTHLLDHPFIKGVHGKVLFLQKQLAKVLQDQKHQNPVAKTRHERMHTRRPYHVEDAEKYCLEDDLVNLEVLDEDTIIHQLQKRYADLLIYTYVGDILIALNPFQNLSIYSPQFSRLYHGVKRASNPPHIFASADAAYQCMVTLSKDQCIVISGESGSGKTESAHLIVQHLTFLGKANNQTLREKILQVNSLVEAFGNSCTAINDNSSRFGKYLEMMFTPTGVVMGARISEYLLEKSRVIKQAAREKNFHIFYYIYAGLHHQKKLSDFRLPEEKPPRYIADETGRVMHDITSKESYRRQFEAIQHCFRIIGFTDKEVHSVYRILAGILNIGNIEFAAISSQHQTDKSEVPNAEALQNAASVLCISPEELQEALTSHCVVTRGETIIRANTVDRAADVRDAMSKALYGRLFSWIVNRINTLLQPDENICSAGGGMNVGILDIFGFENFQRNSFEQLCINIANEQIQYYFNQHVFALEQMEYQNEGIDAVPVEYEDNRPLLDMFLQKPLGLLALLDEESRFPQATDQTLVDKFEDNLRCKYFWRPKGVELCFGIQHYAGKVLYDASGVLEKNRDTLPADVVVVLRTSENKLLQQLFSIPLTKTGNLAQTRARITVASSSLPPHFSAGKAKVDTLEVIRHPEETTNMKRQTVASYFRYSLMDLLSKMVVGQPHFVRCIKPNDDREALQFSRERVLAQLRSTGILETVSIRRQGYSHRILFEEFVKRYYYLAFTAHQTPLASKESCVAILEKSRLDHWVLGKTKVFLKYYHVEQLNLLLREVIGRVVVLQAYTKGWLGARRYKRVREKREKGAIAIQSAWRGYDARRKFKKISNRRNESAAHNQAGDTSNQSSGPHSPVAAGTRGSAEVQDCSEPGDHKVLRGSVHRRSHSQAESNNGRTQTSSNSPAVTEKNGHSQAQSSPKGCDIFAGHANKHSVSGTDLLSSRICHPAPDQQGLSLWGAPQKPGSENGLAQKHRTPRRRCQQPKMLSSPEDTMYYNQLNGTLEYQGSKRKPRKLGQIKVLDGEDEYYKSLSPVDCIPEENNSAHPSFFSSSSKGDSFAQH
The experiment in a line: Binding affinity to human MYO3B assessed as dissociation constant by KdELECT Discover assay.

Molecules are shown by their SMILES.

As for `CN1CCN(C(=O)c2ccc3cc(CCNc4ccnc5ccc(C#N)cc45)ccc3c2)CC1`, the Kd is greater than 30 µM.
